# Experimental data published in patent US9897592B2, “Methods for identifying arthropod repellents and attractants, and compounds and compositions identified by such methods” (The Regents of the University of California, priority 2013, dated 2018).
# Where a name gives a salt, the structure may show the parent alone.
# System: cpA neuron
# Experiment: Single-sensillum recording: activation of cpA neuron by odorants
# Type: cell-based, Aedes aegypti
# Settings: for Activation (spikes s^−1): A. aegypti cpA, 0.5-s pulses, odorants 10^−2 in paraffin oil or water, solvent response subtracted; for Activation (spikes s−1): cpA neuron, 20 compounds from the top 200 SVM ligand predictions, negative values = inhibition, N = 4
# Protocol: FIG. 3b depicts representative traces and mean responses of the A. aegypti cpA neuron to 0.5-s pulses of 138 predicted compounds screened using single-sensillum recordings, in which odorants were diluted to 10^−2 in paraffin oil or water, and responses to solvent have been subtracted, n=2-6, and error bars are s.d.
# FIG. 5f is a bar graph illustrating the mean responses of the A. aegypti cpA neuron to 0.5-s pulses of 22 newly predicted compounds screened as in FIG. 3b, where salmon bars correspond to odorants found in human odor, odorants were diluted to 10^−2 in paraffin oil or water, and responses to solvent have been subtracted, and n=2-5.
# Adult female A. aegypti (Linnaeus 1762) (Rockefeller strain) A. gambiae sensu stricto Giles 1902 (G3 strain), or C. quinquefasciatus Say 1823 were tested 3-12 days post-emergence with single-sensillum extracellular recordings. Chemicals were obtained from Sigma-Aldrich at the highest purity (typically >99%) and were dissolved in paraffin oil or water. […] Response to clean beads was subtracted from the results reported. Only sensilla with cpA activity of <20 spikes s^−1 to negative control were considered for analysis.
# CpA-off and sham treated mosquitoes were pre-treated for 3 min in an upended 1 L glass dish in which 100 μl of fresh butyryl chloride (1%) or paraffin oil was allowed to vaporize for 10-20 min. The odor delivery system for different screens is shown in FIG. 7b; solvent responses during the same recording session were subtracted. Inhibition screen was tested. For the ultra-prolonged activator the 3-s stimulus was delivered from a 10 ml disposable pipette using a CS-55 stimulus controller (Syntech), CO2 was delivered, and responses to subsequent odor stimuli were calculated by subtracting baseline activity 1 s prior to each stimulus. When responses to repeated pulses of cyclopentanone and CO2 were compared, baseline activity between seconds 5 and 6 following each stimulus was subtracted. Spike counting was done manually or with Igor Pro6.2 (Wavemetrics) with the Neuromatic v2.00 macro (by Jason Rothman), and peak-to-peak spike amplitudes for FIG. 8 were analysed in Clampfit 10.3 (Molecular Devices).
# From the large list of cpA receptor ligands predicted from Example 3 above, 138 compounds were selected based on desirable criteria for application such as smell, presence in natural sources, human safety profile, and cost to procure. These compounds were tested individually using single-sensillum electrophysiology on the cp sensillum of female A. aegypti, according to the procedure described in Example 1 above.
SMILES,Activation (spikes s^−1),Activation (spikes s−1)
"c1cnc2cccnc2c1 [1,5-naphthyridine]",1.5 spikes s^−1,
CC(=O)c1ccc[nH]1 [1-(1H-pyrrol-2-yl)ethanone],1.5 spikes s^−1,
"CC(=O)C1=NCCS1 [1-(4,5-dihydro-1,3-thiazol-2-yl)ethanone]",8.0 spikes s^−1,
Cn1cccc1 [1-methylpyrrole],54.2 spikes s^−1,
C=CCCC [1-pentene],,10.3 spikes s−1
CCCC(=O)c1ccccc1 [1-phenylbutan-1-one],1.5 spikes s^−1,
CCC(O)c1ccccc1 (centres unmarked) [1-phenylpropan-1-ol],−3.5 spikes s^−1,
CC(=O)c1ccncc1 [1-pyridin-4-ylethanone],3.5 spikes s^−1,
O=Cc1cnc[nH]1 [1H-imidazole-5-carbaldehyde],2.5 spikes s^−1,
c1cc[nH]c1 [1H-pyrrole],89.8 spikes s^−1,
"CCc1nccnc1CC [2,3-diethylpyrazine]",−15.5 spikes s^−1,
"C=C(C)C(=C)C [2,3-dimethylbuta-1,3-diene]",10.0 spikes s^−1,
"Cc1csc(C)n1 [2,4-dimethyl-1,3-thiazole]",,39.0 spikes s−1
"Cc1ccc(C)s1 [2,5-dimethylthiophene]",,0.3 spikes s−1
"CC1CCCC(C)N1 (centres unmarked) [2,6-dimethylpiperidine]",2.5 spikes s^−1,
"Cc1cncc(C)n1 [2,6-dimethylpyrazine]",14.8 spikes s^−1,
"CC(C)Cc1nccs1 [2-(2-methylpropyl)-1,3-thiazole]",12.0 spikes s^−1,
"Cc1ncsc1CCO [2-(4-methyl-1,3-thiazol-5-yl)ethanol]",4.5 spikes s^−1,
CCOCc1cnccn1 [2-(ethoxymethyl)pyrazine],−8.0 spikes s^−1,
CC(C)SCc1ccco1 [2-(propan-2-ylsulfanylmethyl)furan],−0.5 spikes s^−1,
C[N+](C)(C)CC(=O)[O-] [2-(trimethylazaniumyl)acetate],2.5 spikes s^−1,
CCC(C)C(N)C(=O)O (centres unmarked) [2-amino-3-methylpentanoic acid],−2.5 spikes s^−1,
CCC(N)C(=O)O (centres unmarked) [2-aminobutanoic acid],−3.0 spikes s^−1,
CC(N)C(=O)O (centres unmarked) [2-aminopropanoic acid],−1.5 spikes s^−1,
CCC(C)c1nccnc1OC (centres unmarked) [2-butan-2-yl-3-methoxypyrazine],−10.5 spikes s^−1,

SMILES,Activation (spikes s^−1),Activation (spikes s−1)
CCOC1CCCO1 (centres unmarked) [2-ethoxyoxolane],6.5 spikes s^−1,
CCc1ccc[nH]1 [2-ethyl-1H-pyrrole],8.5 spikes s^−1,
CCc1nccnc1OC [2-ethyl-3-methoxypyrazine],−17.5 spikes s^−1,
CCc1nccnc1C [2-ethyl-3-methylpyrazine],−7.5 spikes s^−1,
CCc1cnccn1 [2-ethylpyrazine],34.5 spikes s^−1,
CCc1cccs1 [2-ethylthiophene],,9.3 spikes s−1
COc1nccnc1C [2-methoxy-3-methylpyrazine],−27.5 spikes s^−1,
Cc1nccnc1CC(C)C [2-methyl-3-(2-methylpropyl)pyrazine],1.0 spikes s^−1,
CSc1ccoc1C [2-methyl-3-methylsulfanylfuran],12.0 spikes s^−1,
Cc1ccccc1C=O [2-methylbenzaldehyde],19.0 spikes s^−1,
CCC(C)C=O (centres unmarked) [2-methylbutanal],33.5 spikes s^−1,
Cc1ccco1 [2-methylfuran],48.0 spikes s^−1,
CC1OCCC1=O (centres unmarked) [2-methyloxolan-3-one],58.4 spikes s^−1,
CC1CCCO1 (centres unmarked) [2-methyloxolane],,82.5 spikes s−1
CCC=C(C)C=O [2-methylpent-2-enal],36.5 spikes s^−1,
CC(C)CO [2-methylpropan-1-ol],,95.0 spikes s−1
C/C=C\C(=O)OCC(C)C [2-methylpropyl (Z)-but-2-enoate],−5.0 spikes s^−1,
CC(C)COC=O [2-methylpropyl formate],48.0 spikes s^−1,
CCC(=O)C(=O)O [2-oxobutanoic acid],7.0 spikes s^−1,
CCCC(=O)C(=O)O [2-oxopentanoic acid],0.0 spikes s^−1,
CCCCCc1ccccn1 [2-pentylpyridine],−6.5 spikes s^−1,
CC(C)CC(=O)OCCc1ccccc1 [2-phenylethyl 3-methylbutanoate],4.5 spikes s^−1,
C/C=C(\C)C(=O)OCCc1ccccc1 [2-phenylethyl (E)-2-methylbut-2-enoate],2.5 spikes s^−1,
CCCC(=O)OCCc1ccccc1 [2-phenylethyl butanoate],−5.5 spikes s^−1,
CCC(=O)OCCc1ccccc1 [2-phenylethyl propanoate],−1.5 spikes s^−1,

SMILES,Activation (spikes s^−1),Activation (spikes s−1)
"CC1CC(=O)C(=O)C1C (centres unmarked) [3,4-dimethylcyclopentane-1,2-dione]",1.5 spikes s^−1,
"Cc1cncc(C)c1 [3,5-dimethylpyridine]",7.5 spikes s^−1,
"CC(C)=CCCC(C)CCO (centres unmarked) [3,7-dimethyloct-6-en-1-ol]",1.5 spikes s^−1,
"CC(C)=CCCC(C)CC(=O)O (centres unmarked) [3,7-dimethyloct-6-enoic acid]",6.0 spikes s^−1,
CC(C)Cc1cccnc1 [3-(2-methylpropyl)pyridine],5.5 spikes s^−1,
NCCC(=O)O [3-aminopropanoic acid],8.0 spikes s^−1,
CCc1cccnc1 [3-ethylpyridine],42.5 spikes s^−1,
CC(=O)C(C)O (centres unmarked) [3-hydroxybutan-2-one],0.5 spikes s^−1,
CC(C)=CC=O [3-methylbut-2-enal],55.5 spikes s^−1,
CC(C)=CC(=O)O [3-methylbut-2-enoic acid],0.5 spikes s^−1,
C=C(C)CCO [3-methylbut-3-en-1-ol],,64.3 spikes s−1
CC(C)CCO [3-methylbutan-1-ol],51.8 spikes s^−1,
CC(C)CC=O [3-methylbutanal],60.2 spikes s^−1,
CC(C)CC#N [3-methylbutanenitrile],75.8 spikes s^−1,
CC1=CC(O)CCC1 (centres unmarked) [3-methylcyclohex-2-en-1-ol],23.0 spikes s^−1,
CC1=CC(=O)CC1 [3-methylcyclopent-2-en-1-one],31.0 spikes s^−1,
"CC1CCC(=O)C1=O (centres unmarked) [3-methylcyclopentane-1,2-dione]",3.5 spikes s^−1,
CCC(C)CC(=O)O (centres unmarked) [3-methylpentanoic acid],3.7 spikes s^−1,
Cc1cccc(O)c1 [3-methylphenol],44.0 spikes s^−1,
C=CCSC [3-methylsulfanylprop-1-ene],,52.8 spikes s−1
Cc1ccsc1 [3-methylthiophene],,33.8 spikes s−1
OCCCc1ccccc1 [3-phenylpropan-1-ol],−3.0 spikes s^−1,
CCc1ccc(C=O)cc1 [4-ethylbenzaldehyde],2.5 spikes s^−1,
"CC1=C(O)C(=O)OC1C (centres unmarked) [4-hydroxy-2,3-dimethyl-2H-furan-5-one]",9.0 spikes s^−1,
